In ChEMBL document CHEMBL1156650, “Furan oligomers and beta-carbolines from terrestrial streptomycetes” (J Nat Prod, 2008):
The source made the active and inactive calls.

Legend:
Type in all cases: functional, organism-based
[1] = test system: Bacillus subtilis; experiment: Antimicrobial activity against Bacillus subtilis by agar diffusion test
[2] = test system: Rhizomucor miehei; experiment: Antimicrobial activity against Mucor miehei by agar diffusion test
[3] = test system: Chlorella sorokiniana; experiment: Antimicrobial activity against Chlorella sorokiniana by agar diffusion test
[4] = test system: Staphylococcus aureus; experiment: Antimicrobial activity against Staphylococcus aureus by agar diffusion test
[5] = test system: Chlorella vulgaris; experiment: Antimicrobial activity against Chlorella vulgaris by agar diffusion test
[6] = test system: Escherichia coli; experiment: Antimicrobial activity against Escherichia coli by agar diffusion test
[7] = test system: Streptomyces viridochromogenes; experiment: Antimicrobial activity against Streptomyces viridochromogenes Tu57 by agar diffusion test
[8] = test system: Desmodesmus subspicatus; experiment: Antimicrobial activity against Scenedesmus subspicatus by agar diffusion test
[9] = test system: Candida albicans; experiment: Antimicrobial activity against Candida albicans by agar diffusion test

Measured: Activity

COC(=O)/C=C/C(=O)c1nccc2c1[nH]c1ccccc12
inactive: all assays above

COC(OCc1ccc(C(OC)OCc2ccc(C=O)o2)o1)c1ccc(CO)o1 (configuration not stated)
inactive: all assays above

COC(OCc1ccc(C=O)o1)c1ccc(CO)o1 (configuration not stated)
inactive: all assays above

CC1=C(O)C(=O)/C(=C\c2ccc(CO)o2)O1
inactive: all assays above

CC(=O)OCc1ccc(COC(C)=O)o1
inactive: all assays above

OCc1ccc(-c2nccc3c2[nH]c2ccccc23)o1
inactive: all assays above

CC(=O)OCc1ccc(CO)o1
inactive: all assays above

O=C(O)/C=C/C(=O)c1nccc2c1[nH]c1ccccc12
inactive: all assays above
